The values below come from patent US6649628B1, “N-[2-hydroxy-3-(1-piperidinyl)propoxy]pyridine-1-oxide-3-carboximidoyl chloride and its use in the treatment of insulin resistance” (Biorex Kutato es Fejleszto RT, priority 1999, dated 2003).

Where two headings read alike, the source gives them in different places.

For experiment [1], the system named is STZ-diabetic Wistar rats. As to the kind of experiment: Experiment 5: urinary protein loss caused by diabetic nephropathy after 1-month treatment. Type of experiment: in vivo, rat. On the procedure: For the 24-hour period of urine collection, the animals were placed in individual metabolic cages. During this period they were given water ad libitum but no food. The latter measure was necessary to prevent possible contamination by the protein content of the food. Urine was collected in calibrated glass containers, in which Thymol crystal (Reanal 3135-1-08-38) was placed to prevent bacterial contamination.
Before measurement, the urine samples were centrifuged (2500 rpm) and filtered through a paper filter (Whatmann 1). If necessary, they were stored at −20° C. until measurement.
The total protein content of the urine was determined by the Bradford staining method (Sigma B-6916, St. Louis, Mo.), and color intensity was detected by spectrophotometry (Hitachi-U-3200).

The test system of experiment [2] is STZ-diabetic rats. As to conditions: 2 month; for Scores lenticular + retinal improvement % / Scores lenticular + retinal mean ± SE / Scores retinal improvement % / Scores retinal mean ± SE: 5 mg/kg daily; for effect on lenticular and retinal pathologic histological alterations / effect on retinal histological alterations only: Compound-A 10 mg/kg, enantiomers 5 mg/kg daily. On the procedure: After anesthesia (Calypsovet, 125 mg/kg. Ip., Richter Rt., Hungary), the eyes were enucleated and fixed in 4% formaldehyde dissolved in a phosphate buffer (pH:7.4).
Afterwards, they were embedded in paraffin (Medim DDM P800, embedding center: Lignifer L-120-92-014, stainer: Shandon Eliott, Microtome: is Leica SM 2000 R, Microscope: Jenaval Karl Zeiss Jena). Several 6 micron sections of the eyes were prepared, and hematoxilyn/eosine (Fluka) and PAS (periodic acid-Schiff, Fluka) staining were used. The light-microscopic evaluation was performed at a magnification of 40× and 100×. Photographs and slide positives were prepared of representative samples.
The histological evaluation was performed on coded samples, the group division was unknown for the examiner. Pathological deviations of the retina were graded on a scale of 0-20, while those of the lens on a scale of 0-3.
The statistical calculations were done with the Statistica 4.5 (SatSoft, USA) program. The given value for negative cases was 0.1. A Box and Whisker plot graph was also prepared.
For each group in the experiment, the mean±SE (Standard Error) values were calculated, and the comparison was done with the help of a non-parametric Mann-Whitney U-test (Graphpad Instat, San Diego, Calif.).

For experiment [3], the system named is Zucker Diabetic Fatty (ZDF) rats. To be noted: for Fed serum glucose concentrations: 2 × 20 mg/kg/day. On the procedure: A genetically diabetic animal model was selected and the Zucker Diabetic Fatty (ZDF) rats were used in the experiments. This model is the diabetic variant of the insulin resistant, obese but non-diabetic Zucker fa/fa animal model (see Experiment 1). In the ZDF rats diabetes developed at the age of 6-8 weeks preceded by an insulin resistant phase.
The effect of (A+) enantiomer was investigated in a treatment with a dose of 2×20 mg/kg/day started in the non-diabetic phase, at the age of 7 weeks and continued for 6 weeks.
Clinical chemistry parameters were measured by standard methods. The serum insulin concentrations were measured by a recently developed method (ELISA method, DRG lnternational,Inc., U.S.A.).

The subject of experiment [4] is STZ-diabetic Wistar rats. The source says:
The experiments were accomplished on Wistar rats with a body weight of 320-350 g. Diabetes was induced and checked as described in Experiment 2. In the test animals having been diabetic for 3 weeks the left nervus ischidiacus was injured by freezing and the right side one was used as non-injured control. The regeneration was observed by monitoring the signals of the flexor reflex provoked by irritation of the sole that is areas under curve (AUC) of the electromyogram transferred from the forward tibial muscle. For the stimulation and detection the system described in Experiment 2 was used. Single daily doses of 10 mg/kg of Compound-A and 5 mg/kg of A(+) enantiomer were administred for 5 weeks after the injury by freezing.

The test system of experiment [5] is STZ-diabetic Wistar rats. The experiment is described as follows: Experiment 6: Compound-A and enantiomers, nerve conduction velocity after 1 month treatment. As to conditions: for MNCV / MNCV improvement / SNCV / SNCV improvement: 5 mg/kg daily, 1 month; for effect on motor (MNCV) and sensory (SNCV) nerve conduction velocity deficits: Compound-A 10 mg/kg, enantiomers 5 mg/kg daily.
Method: In the experiments, male Wistar rats were used (Charles River Laboratories Inc.). At the start of the experiment, their weights were 340-370 g. Diabetes was induced by the intravenous administration of a single 45 mg/kg dose of streptozotocine (STZ, Sigma, St. Louis, Mo.) dissolved in physiological saline solution. The development of diabetes was checked after 1 day by a blood glucose test, accepting a value over 15 mmol/l.
The test and reference substances were administered p.os to the animals once a day.
For the determination of nerve conduction velocity (NCV), the method of Stanley, modified by De Konig and Gispen was used. The animals were anesthetized by the simultaneous administration of Hyponorm (1 mg/kg ip., Janssen, Tilburg, Denmark), fluanisone (10 mg/ml), and phentanyl citrate (0.2 mg/ml). Afterwards, the left ischiadicus and tibial nerves were stimulated at standard points. Supramaximal stimulus (square impulse, 0.03 ms) was used with a platinum needle electrode, through a Nihon-Kohden (model SEN-1104, Japan) stimulator. The electromyogram (EMG) transferred from the sole muscles and intensified by a myograph (Elema-Schonander, Stockholm, Sweden) was analyzed further by the Matlab for Windows (Mathwork Inc, UK) program. The extent of NCV damage caused by diabetes was expressed in m/s. The effectiveness of the treatment was compared to this in terms of percentage (%). The statistical calculations were done by unpaired t-test or single-criterion ANOVA test (along with the Newman-Keuls post hoc test).

The subject of experiment [6] is high fat (HF) diet insulin resistant male Wistar rats. The experiment is described as follows: Experiment 8: in vivo insulin-dependent glucose uptake (euglycaemic glucose clamp) in dietary induced insulin resistance. To be noted: for effect on fasting blood glucose levels: 20 mg/kg daily, 3 weeks; for in vivo insulin mediated glucose uptake (glucose infusion rate, GIR): 20 mg/kg/day for 3 weeks, euglycaemic glucose clamp, insulin infusion 6.4 mU/kg/min.
Method: Male Wistar rats (Charles River Laboratories Inc.) with an initial body weight of 300-350 g were used in the experiments.
Insulin resistance was induced by dietary manipulation: animals were given a high fat (HF) diet for 3 weeks. In the HF diet the proportion of saturated fats were dominant and gave 70% of total daily caloric intake.
Briefly: the fasting blood glucose concentration in different animal groups must be identical. Experiments were carried out in conscious, freely moving, chronicly canulated rats: first an insulin infusion (6.4 mU/kg/min) was started, followed by a parallel-run continuous glucose infusion to maintain blood glucose concentrations in the euglycaemic range. After stabilisation the quantity of infused glucose was measured for a 90 min. period (glucose infusion rate=GIR, mg/kg/min) which is the quantitative parameter of insulin sensitivity.

As for `O=C(O)/C=C\C(=O)O.[O-][n+]1cccc(C(Cl)=NOC[C@H](O)CN2CCCCC2)c1` [A(+), (+)-/R/-N-[2-hydroxy-3-(1-piperidinyl)-propoxy]-pyridine-1-oxide-3-carboximidoyl chloride (Z)-2-butenedioate (1:1)], in experiment [1] (5 mg/kg daily, 1 month, series 2), the “24-hour Urinary Protein Loss Mean ± SE” value is 5.61 ± 1.08 mg/24 h. In addition, the “effect on STZ-diabetes-induced urinary protein loss” value in experiment [1] (Bimoclomol 20 mg/kg, Compound-A 10 mg/kg, (+) enantiomer 5 mg/kg daily) is recorded as “significantly reduced”. Moreover, in experiment [2], the “Scores lenticular + retinal improvement %” value was 42.9%, the “Scores lenticular + retinal mean ± SE” value worked out at 4.05 ± 0.80, the “Scores retinal improvement %” value amounted to 68.9% and the “Scores retinal mean ± SE” value turned out to be 1.68 ± 0.63. Moreover, in experiment [2], the “effect on lenticular and retinal pathologic histological alterations” value is recorded as “significantly improved”; the “effect on retinal histological alterations only” value is listed as “effective”. Also, in experiment [3] (2×20 mg/kg/day), the “antidiabetic activity in diabetic animals” value is given as “strong antidiabetic activity” and the “normalization of blood glucose concentrations” value is “did not normalize”. Moreover, the “Fed serum glucose concentrations” value in experiment [3] (3 weeks) came to 10.82 ± 1.36 mmol/L. Besides, the “Fed serum glucose concentrations” value in experiment [3] (5 weeks) is 13.25 ± 0.76 mmol/L. Further, in experiment [4] (5 mg/kg daily for 5 weeks), the “neuroregeneration of the non-freezed nerves” value is listed as 83% and the “neuroregenerative effect” value is listed as “strong neuroregenerative effect”. Moreover, the “extent of neuroregeneration of the nerve injured by freezing” value in experiment [4] (5 mg/kg daily for 5 weeks after injury, 5. week, untreated 63%) came to 93%. Also, in experiment [5], the MNCV was 56.1 ± 0.5 m/s, the MNCV improvement was determined as 71.3%, the SNCV turned out to be 59.7 ± 0.5 m/s and the SNCV improvement came out at 68.5%. In experiment [5], the “effect on motor (MNCV) and sensory (SNCV) nerve conduction velocity deficits” value is “significantly improved”. Further, in experiment [6], the “effect on fasting blood glucose levels” value is given as “did not affect” and the “in vivo insulin mediated glucose uptake (glucose infusion rate, GIR)” value is 20.5 ± 0.89 mg/kg/min.

As for `O=C(O)/C=C\C(=O)O.[O-][n+]1cccc(C(Cl)=NOC[C@@H](O)CN2CCCCC2)c1` [A(−), (−)-/S/-N-[2-hydroxy-3-(1-piperidinyl)-propoxy]-pyridine-1-oxide-3-carboximidoyl chloride (Z)-2-butenedioate (1:1)], in experiment [2], the “Scores lenticular + retinal improvement %” value was 10.3%, the “Scores lenticular + retinal mean ± SE” value was found to be 6.02 ± 1.09, the “Scores retinal improvement %” value is reported as 21.7% and the “Scores retinal mean ± SE” value is 3.53 ± 1.07. For the same molecule, in experiment [2], the “effect on lenticular and retinal pathologic histological alterations” value is listed as “not effective”; the “effect on retinal histological alterations only” value was “not significant”. In experiment [5], this molecule displayed an MNCV of 53.1 ± 0.7 m/s, an MNCV improvement of 39.4%, an SNCV of 54.1 ± 0.9 m/s and an SNCV improvement of 34.9%. The “effect on motor (MNCV) and sensory (SNCV) nerve conduction velocity deficits” value in experiment [5] is reported as “did not have significant improving effect”. Further, in experiment [6], the “effect on fasting blood glucose levels” value was “did not affect” and the “in vivo insulin mediated glucose uptake (glucose infusion rate, GIR)” value is listed as 19.7 ± 1.38 mg/kg/min.
